Measured values from US12084442B2, “Naphthyridinone derivatives for the treatment of a disease or disorder” (Novartis AG, priority 2021, dated 2024).

Experiments:
[1] = target: GIRK1/4 (Homo sapiens (Human), UniProt P48544+P48549); assay: GIRK1/4 activity assay (Quattro/IonWorks population patch clamp, inward potassium current); format: cell-based; settings: GIRK1/4 HEK293 stable cells; current inhibition normalized to DMSO-only control
Description: The GIRK1/4 activity of a compound according to the present invention was assessed by the following in vitro method.
• a. External buffer: 10 mM NaCl, 50 mM Na Gluconate, 80 mM K Gluconate, 1.8 mM CaCl2, 1 mM MgCl2, 10 mM HEPES, 10 mM Glucose, pH 7.4; osmolarity 300-310 Osm/L. • b. Internal buffer: 30 mM KCl, 100 mM K Gluconate, 1 mM MgCl2, 10 mM HEPES, 1 mM EGTA, 10 mM NaCl, pH 7.2; osmolarity 284-292 Osm/L. Compounds: • c. Prepare seven-fold compound dilution series (10 mM to 20 uM) in 100% DMSO, in 384-well polypropylene plates. • d. Propafenone (Sigma Aldrich, catalog number P4670) was used as a positive control and DMSO for neutral control • e. Resuspend 1 μl of compounds in DMSO into 66.7 μl external buffer in 384-well polypropylene plate and load into Plate 1 section of Molecular Devices Quattro® Quattro Setup: • f. Load 384-well Population Patch Plate (Molecular Devices #9000-0902) into Quattro • g. Fill Quattro F-soak trough with 20% DMSO and 50% EtOH • h. Fill Quattro buffer trough with external buffer • i. Attach internal buffer flask to Quattro internal buffer tubing • j. Attach PBS (Phosphate Buffered Saline, minus Ca^++ and Mg^++, pH7.4) bottle to F-head & E-head wash on Quattro Antibiotic: • k. Resuspend 5.1-5.8 mg amphotericin B (Sigma Aldrich, catalog number A2411) in 175 μl DMSO • l. Add the resulting solution to 50 mL internal buffer and attach to antibiotic tubing port on Quattro Cells: • m. Use GIRK1/4 HEK293 stable cells (obtained from ChanTest, 14656 Neo Parkway, Cleveland, Ohio 44128) grown to ˜80% confluency in the following cell culture medium: DMEM containing 10% (v/v) Fetal Bovine Serum, Penicillin/Streptomycin (at “IX” concentration from a 100× stock), 0.5 mg/mL G418 and 0.1 mg/mL Zeocin. • n. Detach cells using Detachin (Genlantis, 11011 Torreyana, San Diego, CA 92121), washed with PBS (minus Ca^++ and Mg^++) and resuspend in external buffer (5 mL final volume at 2.0-2.1×10^6 cells/mL) • o. Load into cell trough of Quattro Assay Protocol:
Quattro was controlled using IonWorks v2 software to perform the following steps: • p. Added 3.5 μl cells plus 3.5 μl external buffer to wells of Quattro Patch Plate® • q. Circulated amphotericin B and internal buffer onto cells • r. Applied the following voltage protocol: Pulse 1: 15 mV for 300 milliseconds (ms), followed by Pulse 2: −120 mV for 400 ms, then Pulse 3: −15 mV for 400 ms, and finally Pulse 4: −120 mV to 40 mV over 500 ms (this is a voltage ramp). • s. Measured magnitude of inward potassium current at time point between 1200-1220 ms from start of Pulse 1 (i.e., during the voltage ramp phase). • t. Added 3.5 μl of diluted compounds (or DMSO) to wells and repeated […] (final compound concentrations are 50 uM to 0.1 uM, and each concentration was tested in quadruplicate—i.e., in 4 separate wells). • u. The difference between current magnitude pre vs. post-compound gave a measure of GIRK1/4 inhibition. Data Analysis:
IC50 values were calculated by plotting the percentage of current inhibition (normalized to the DMSO-only control) as a function of compound concentration using standard data analysis software.

[2] = Pharmacokinetic properties in rats (IV and PO, whole blood LC-MS/MS); format: in vivo, Spargue Dawley/CD, male; settings: for Rat AUC0-24 h 3 mg/kg: 3 mg/kg PO, suspension; for Rat AUC0-24 h 3 mg/kg / clearance: whole blood; for clearance: male, Sprague Dawley/CD, rat, IV dosing (0.3-1 mg/kg), CL = Dose/AUCinf; for Rat F: oral bioavailability, PO 3 mg/kg vs IV
Description: The pharmacokinetic properties of the compounds in rats were assessed by the following in vivo studies as described below.
At least four days before first drug administration, the rats (250-350 g) were anesthetized and, under aseptic conditions, catheters were surgically implanted into the left and right jugular veins (one for blood collection and the other one for intravenous injection). The catheters were exteriorized and fixed at the neck. For analgesic treatment, animals received analgesics before surgery and subsequently twice at appropriate times after surgery. The freely-moving animals equipped with catheters are kept individually in Macrolon cages, with free access to food and water throughout the experiment. After a recovery phase of at least 4 days, a single test compound was administered intravenously or orally, based upon the individual body weights.
The test articles were administered as solution in NMP:PEG 200 (10:90 v/v). Test articles where no solution can be obtained were rejected and not used in discrete or cassette dosing.
The test article were administered as suspension in MC:Tween 80:water (0.5:0.1:99.4 w/v/v).
The test article was administered as solution and as a bolus injection or as short I.V. infusion (30 seconds) via the left jugular vein catheter to conscious rats. The dose volume was 0.5 mL/kg body weight.
The test article was administered as a solution or suspension into the esophagus via a gavage tube to conscious rats. The dose volume was 5 mL/kg body weight. The exact start time of dosing and exact dose volume was noted.
Blood samples (20 μL) were collected from the right jugular vein catheter of cannulated animals (if JV catheter becomes non patent during the PK experiment (i.e., after dosing), blood can exceptionally be collected by tail vein puncture but it must be clearly specified into the in-life observations and data study rep) in tubes containing 10% of blood of 2% W/V K2 EDTA (2.0 mg/mL) at the different time intervals. Blood was collected following IV dosing at 0.083, 0.25, 0.5, 1, 2, 4, 7 and 24 h post dose. Blood was collected following PO dosing: 0.25, 0.5, 1, 2, 4, 7 and 24 h post dose.
The concentrations of compounds in whole blood were quantified using a liquid chromatography/mass spectrometry (LC-MS/MS) assay. 20 μL of each blood sample were precipitated with 100 μL of acetonitrile containing generic internal standards (carbamazepine/telmisartan/verapamil; c=50 ng/mL). The samples were vortexed thoroughly then centrifuged (5 min, 4° C.). The supernatant (80 μL) was transferred to a clean 96-well plate and mixed with 80 μL of water.
The samples were injected (1 to 20 μL) onto suitable analytical columns, using various isocratic methods and flow rates. Mobile phases typically consisting of 0.1% formic acid in water (solvent A) and 0.1% formic acid in acetonitrile (solvent B) with additional modifiers, if needed. Compounds and the internal standards were eluted at various retention times. The HPLC systems were interfaced to mass spectrometers. MS/MS analyses were carried out using electrospray ionization (ESI), typically in the positive ionization mode. Compounds and the internal standards were monitored using multiple reaction monitoring (MRM).
The standard curves employed for sample quantitation ranged over several log units. The lower limit of quantitation (LLOQ) in blood was determined and used as cutoff for the analytical sensitivity. Known amounts of the compounds were spiked into blood to create quality control samples with six known concentrations in singlets. The accuracy of the in vivo blood sample concentration determination was considered acceptable when the intra-assay accuracies obtained for the quality control samples were within 70% to 130% of the expected concentrations. Subsequently, from the time concentration data, pharmacokinetic parameters were calculated by non-compartmental regression analyses using an in house fitting program. […]

GIRK1/4, sequence (P48549 whole entry): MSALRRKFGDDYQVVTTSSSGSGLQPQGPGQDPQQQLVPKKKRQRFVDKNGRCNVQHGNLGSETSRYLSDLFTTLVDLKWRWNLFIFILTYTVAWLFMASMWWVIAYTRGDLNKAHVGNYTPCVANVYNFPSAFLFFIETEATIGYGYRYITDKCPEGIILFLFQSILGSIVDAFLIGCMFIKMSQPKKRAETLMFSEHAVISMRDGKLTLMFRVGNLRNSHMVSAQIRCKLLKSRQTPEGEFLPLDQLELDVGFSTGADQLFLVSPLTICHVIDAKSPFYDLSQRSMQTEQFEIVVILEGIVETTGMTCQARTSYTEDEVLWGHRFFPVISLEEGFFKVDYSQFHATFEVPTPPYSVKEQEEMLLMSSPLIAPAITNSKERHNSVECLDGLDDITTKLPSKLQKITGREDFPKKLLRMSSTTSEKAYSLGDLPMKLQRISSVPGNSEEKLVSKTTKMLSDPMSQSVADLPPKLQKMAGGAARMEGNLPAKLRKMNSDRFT
GIRK1/4, sequence (P48544 whole entry): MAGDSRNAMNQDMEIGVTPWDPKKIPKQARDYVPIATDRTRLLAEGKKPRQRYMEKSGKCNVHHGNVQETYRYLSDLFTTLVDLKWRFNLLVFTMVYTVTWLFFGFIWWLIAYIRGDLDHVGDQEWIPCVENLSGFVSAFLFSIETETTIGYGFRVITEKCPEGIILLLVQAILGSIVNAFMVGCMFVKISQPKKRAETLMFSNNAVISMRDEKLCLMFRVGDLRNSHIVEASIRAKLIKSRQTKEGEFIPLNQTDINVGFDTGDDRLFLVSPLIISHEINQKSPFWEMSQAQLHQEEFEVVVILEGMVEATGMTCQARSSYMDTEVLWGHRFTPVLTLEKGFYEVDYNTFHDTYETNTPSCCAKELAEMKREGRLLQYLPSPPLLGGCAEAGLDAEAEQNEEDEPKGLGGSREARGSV

Structure (SMILES)	IC50 [1] [nM]	Rat AUC0-24 h 3 mg/kg [2] [nMh]	clearance [2] [mL/min/kg]	Rat F [2] [%]
Cc1cc(=O)c2c(CC(C)S(C)(=O)=O)ncc(Cl)c2n1-c1c(Cl)cc(OCCO)cc1Cl (single isomer, unassigned) [Example 21, 8-Chloro-1-(2,6-dichloro-4-(2-hydroxyethoxy)phenyl)-2-methyl-5-(2-(methylsulfonyl)propyl)-1,6-naphthyridin-4(1H)-one]	170	3200	10.4	34
Cc1cc(=O)c2c(OCC(=O)NCCO)ncc(Cl)c2n1-c1c(Cl)cc(OCCO)cc1Cl [Example 2, 2-((8-Chloro-1-(2,6-dichloro-4-(2-hydroxyethoxy)phenyl)-2-methyl-4-oxo-1,4-dihydro-1,6-naphthyridin-5-yl)oxy)-N-(2-hydroxyethyl)acetamide]	220	1288	23	29
CNC(=O)CCOc1ncc(Cl)c2c1c(=O)cc(C)n2-c1c(Cl)cc(OCC(C)(C)O)cc1Cl [Example 3, 3-((8-Chloro-1-(2,6-dichloro-4-(2-hydroxy-2-methylpropoxy)phenyl)-2-methyl-4-oxo-1,4-dihydro-1,6-naphthyridin-5-yl)oxy)-N-methylpropanamide]	220	7738	5.7	47
CNC(=O)COc1ncc(Cl)c2c1c(=O)cc(C)n2-c1c(Cl)cc(OCC(C)(C)O)cc1Cl [Example 4, 2-((8-Chloro-1-(2,6-dichloro-4-(2-hydroxy-2-methylpropoxy)phenyl)-2-methyl-4-oxo-1,4-dihydro-1,6-naphthyridin-5-yl)oxy)-N-methylacetamide]	160	3674	5.5	22
CNC(=O)[C@@H](C)COc1ncc(Cl)c2c1c(=O)cc(C)n2-c1c(Cl)cc(OCCO)cc1Cl [Example 8, (S)-3-((8-Chloro-1-(2,6-dichloro-4-(2-hydroxyethoxy)phenyl)-2-methyl-4-oxo-1,4-dihydro-1,6-naphthyridin-5-yl)oxy)-N,2-dimethylpropanamide]	70			
CNC(=O)CCOc1ncc(Cl)c2c1c(=O)cc(C)n2-c1c(Cl)cc(OC[C@H](C)O)cc1Cl [Example 10, (S)-3-((8-Chloro-1-(2,6-dichloro-4-(2-hydroxypropoxy)phenyl)-2-methyl-4-oxo-1,4-dihydro-1,6-naphthyridin-5-yl)oxy)-N-methylpropanamide]	330			
CNC(=O)C(C)(C)COc1ncc(Cl)c2c1c(=O)cc(C)n2-c1c(Cl)cc(OCCO)cc1Cl [Example 11, 3-((8-Chloro-1-(2,6-dichloro-4-(2-hydroxyethoxy)phenyl)-2-methyl-4-oxo-1,4-dihydro-1,6-naphthyridin-5-yl)oxy)-N,2,2-trimethylpropanamide]	160			
CNC(=O)[C@H](O)COc1ncc(Cl)c2c1c(=O)cc(C)n2-c1c(Cl)cc(OCCO)cc1Cl [Example 12, (R)-3-((8-Chloro-1-(2,6-dichloro-4-(2-hydroxyethoxy)phenyl)-2-methyl-4-oxo-1,4-dihydro-1,6-naphthyridin-5-yl)oxy)-2-hydroxy-N-methylpropanamide]	200			
CNC(=O)[C@@H](O)COc1ncc(Cl)c2c1c(=O)cc(C)n2-c1c(Cl)cc(OCC(C)(C)O)cc1Cl [Example 14, (S)-3-((8-chloro-1-(2,6-dichloro-4-(2-hydroxy-2-methylpropoxy)phenyl)-2-methyl-4-oxo-1,4-dihydro-1,6-naphthyridin-5-yl)oxy)-2-hydroxy-N-methylpropanamide]	170			
CNC(=O)C(F)(F)COc1ncc(Cl)c2c1c(=O)cc(C)n2-c1c(Cl)cc(OCCO)cc1Cl [Example 16, 3-((8-Chloro-1-(2,6-dichloro-4-(2-hydroxyethoxy)phenyl)-2-methyl-4-oxo-1,4-dihydro-1,6-naphthyridin-5-yl)oxy)-2,2-difluoro-N-methylpropanamide]	30			
Cc1cc(=O)c2c(OCCC(N)=O)ncc(Cl)c2n1-c1c(Cl)cc(OCCO)cc1Cl [Example 18]		1702	38.9	65
